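Five concentrations, 48 hours, 96-well plates. GI50 is the concentration that inhibits growth by half. TGI denotes the concentration required for complete inhibition of growth.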 Where a SMILES comes first, the peptide text is derived from it. [ ]: non-standard residue; d: D form. The star is where a group is joined. ξ: configuration not given here. ξF = NC(Cc1ccccc1)C(=O)O; Cbz = O=C(OCc1ccccc1)*
Experiments:
Test in all cases: NCI-60 cell line screen, 48 h
A498 renal = tested on: A498 renal
SNB-19 CNS = tested on: SNB-19 CNS
SF-295 CNS = tested on: SF-295 CNS
SK-MEL-2 melanoma = tested on: SK-MEL-2 melanoma
A549 NSCLC = tested on: A549 NSCLC
SNB-75 CNS = tested on: SNB-75 CNS
MDA-MB-231 breast = tested on: MDA-MB-231 breast
UACC-257 melanoma = tested on: UACC-257 melanoma
NCI/ADR-RES ovarian = tested on: NCI/ADR-RES ovarian
HS 578T breast = tested on: HS 578T breast
HOP-92 NSCLC = tested on: HOP-92 NSCLC

CCOC(=O)C1(C/C=C\CBr)CCCC1=O (stereo not given)
TGI (A498 renal): > 100 µM
TGI (SNB-19 CNS): > 100 µM
TGI (SF-295 CNS): > 100 µM
TGI (SK-MEL-2 melanoma): > 100 µM
TGI (A549 NSCLC): > 100 µM
TGI (SNB-75 CNS): > 100 µM
TGI (MDA-MB-231 breast): 84 µM
TGI (UACC-257 melanoma): > 100 µM
TGI (NCI/ADR-RES ovarian): 57.2 µM
TGI (HS 578T breast): > 100 µM

NS(=O)(=O)c1nnc(NC(=S)NC(=O)Nc2ccc(Cl)c(Cl)c2)s1
TGI (SNB-19 CNS): 94.8 µM
TGI (SF-295 CNS): 62.1 µM
TGI (SK-MEL-2 melanoma): 88 µM
TGI (A549 NSCLC): > 100 µM
TGI (SNB-75 CNS): 50 µM
TGI (MDA-MB-231 breast): > 100 µM
TGI (UACC-257 melanoma): 65.1 µM
TGI (NCI/ADR-RES ovarian): 62.6 µM
TGI (HOP-92 NSCLC): 36.2 µM
TGI (HS 578T breast): 67.2 µM

CCCCCCCCOCC(COC(=O)CCCCCCC)OC(=O)CCCCCCC (stereo not given)
TGI (A498 renal): > 100 µM
TGI (SNB-19 CNS): > 100 µM
TGI (SF-295 CNS): > 100 µM
TGI (A549 NSCLC): > 100 µM
TGI (UACC-257 melanoma): > 100 µM
TGI (HOP-92 NSCLC): > 100 µM

CN1CCOC(C(NC(=O)c2ccccc2)c2ccccc2)C1=O (stereo not given)
TGI (A498 renal): > 100 µM
TGI (SNB-19 CNS): > 100 µM
TGI (SF-295 CNS): > 100 µM
TGI (SK-MEL-2 melanoma): > 100 µM
TGI (A549 NSCLC): > 100 µM
TGI (SNB-75 CNS): > 100 µM
TGI (UACC-257 melanoma): > 100 µM
TGI (HOP-92 NSCLC): > 100 µM

Cc1ccc(N=N/C(=N/NC(=O)c2ccccc2)c2ccc(N(CCC#N)CCC#N)cc2C)cc1
TGI (A498 renal): 88.1 µM
TGI (SNB-19 CNS): > 100 µM
TGI (SF-295 CNS): > 100 µM
TGI (SK-MEL-2 melanoma): > 100 µM
TGI (A549 NSCLC): > 100 µM
TGI (SNB-75 CNS): > 100 µM
TGI (MDA-MB-231 breast): > 100 µM
TGI (UACC-257 melanoma): > 100 µM
TGI (NCI/ADR-RES ovarian): > 100 µM
TGI (HS 578T breast): 46.9 µM

Cc1cc2nc3c(C#N)c(-c4ccccc4)/c(=C\Nc4ccc(F)cc4)c(=O)n3c2cc1C
TGI (A498 renal): > 100 µM
TGI (SNB-19 CNS): 80.9 µM
TGI (SF-295 CNS): > 100 µM
TGI (SK-MEL-2 melanoma): > 100 µM
TGI (A549 NSCLC): > 100 µM
TGI (SNB-75 CNS): > 100 µM
TGI (MDA-MB-231 breast): > 100 µM
TGI (UACC-257 melanoma): > 100 µM
TGI (NCI/ADR-RES ovarian): > 100 µM

CCOC(=O)CNC(=O)C(Cc1ccccc1)NC(=O)OCc1ccccc1 (stereo not given) (Cbz-[ξF]-Gly-OEt)
TGI (A498 renal): > 100 µM
TGI (SNB-19 CNS): > 100 µM
TGI (SF-295 CNS): > 100 µM
TGI (A549 NSCLC): > 100 µM
TGI (SNB-75 CNS): > 100 µM
TGI (MDA-MB-231 breast): > 100 µM
TGI (NCI/ADR-RES ovarian): > 100 µM
TGI (HOP-92 NSCLC): > 100 µM
TGI (HS 578T breast): > 100 µM

C1CCC(N=C2N(C3CCCCC3)C(=NC3CCCCC3)N2C2CCCCC2)CC1
TGI (SNB-19 CNS): > 100 µM
TGI (SF-295 CNS): > 100 µM
TGI (SK-MEL-2 melanoma): > 100 µM
TGI (A549 NSCLC): > 100 µM
TGI (SNB-75 CNS): > 100 µM
TGI (UACC-257 melanoma): > 100 µM
TGI (HOP-92 NSCLC): > 100 µM

Cn1c(CNc2ccc(-c3n[nH]c(=S)n3C)cc2)n[nH]c1=S
TGI (SNB-19 CNS): > 100 µM
TGI (SF-295 CNS): > 100 µM
TGI (SK-MEL-2 melanoma): > 100 µM
TGI (A549 NSCLC): > 100 µM
TGI (SNB-75 CNS): > 100 µM
TGI (MDA-MB-231 breast): > 100 µM
TGI (UACC-257 melanoma): > 100 µM
TGI (NCI/ADR-RES ovarian): > 100 µM
TGI (HOP-92 NSCLC): > 100 µM

c1cc(-c2ccc(-c3ccsc3)s2)cs1
TGI (A498 renal): > 100 µM
TGI (SF-295 CNS): > 100 µM
TGI (A549 NSCLC): 64.5 µM
TGI (SNB-75 CNS): 76.4 µM
TGI (UACC-257 melanoma): > 100 µM
TGI (NCI/ADR-RES ovarian): 87.5 µM
TGI (HOP-92 NSCLC): > 100 µM
TGI (HS 578T breast): > 100 µM

CCOC(=O)c1cn(CC)c(=O)n2c1nc1ccccc12
TGI (A498 renal): > 100 µM
TGI (SNB-19 CNS): > 100 µM
TGI (SF-295 CNS): > 100 µM
TGI (SK-MEL-2 melanoma): > 100 µM
TGI (A549 NSCLC): > 100 µM
TGI (SNB-75 CNS): > 100 µM
TGI (MDA-MB-231 breast): > 100 µM
TGI (UACC-257 melanoma): > 100 µM
TGI (NCI/ADR-RES ovarian): > 100 µM
TGI (HOP-92 NSCLC): > 100 µM

Oc1c(N2CCCCC2)cc(-c2cc(N3CCCCC3)c(O)c3ccccc23)c2ccccc12
TGI (SNB-19 CNS): > 100 µM
TGI (SF-295 CNS): > 100 µM
TGI (SK-MEL-2 melanoma): 91.6 µM
TGI (A549 NSCLC): > 100 µM
TGI (MDA-MB-231 breast): > 100 µM
TGI (UACC-257 melanoma): 28.5 µM
TGI (NCI/ADR-RES ovarian): > 100 µM
TGI (HOP-92 NSCLC): 70.4 µM
TGI (HS 578T breast): 72.6 µM

O=C1CC(c2ccc(Cl)cc2)=Nc2ccccc2N1
TGI (A498 renal): > 100 µM
TGI (SNB-19 CNS): > 100 µM
TGI (SF-295 CNS): > 100 µM
TGI (SK-MEL-2 melanoma): > 100 µM
TGI (A549 NSCLC): > 100 µM
TGI (SNB-75 CNS): 50.2 µM
TGI (UACC-257 melanoma): > 100 µM
TGI (HOP-92 NSCLC): 71.1 µM

CCOC(=O)C1S(=O)(=O)OCCOS1(=O)=O
TGI (SNB-19 CNS): > 100 µM
TGI (SF-295 CNS): > 100 µM
TGI (SK-MEL-2 melanoma): > 100 µM
TGI (A549 NSCLC): > 100 µM
TGI (SNB-75 CNS): > 100 µM
TGI (UACC-257 melanoma): > 100 µM
TGI (HOP-92 NSCLC): > 100 µM

O=C(O)CCCc1ccc2c(c1)CC1(C2)Cc2cc3c(cc2C1)CCCC3
TGI (A498 renal): 35.3 µM
TGI (SF-295 CNS): 56.9 µM
TGI (SK-MEL-2 melanoma): 35.3 µM
TGI (A549 NSCLC): 67 µM
TGI (UACC-257 melanoma): > 100 µM
TGI (NCI/ADR-RES ovarian): 87.4 µM
TGI (HOP-92 NSCLC): 44.2 µM
TGI (HS 578T breast): > 100 µM

CCN(/C=C1/C(=O)C(c2ccccc2)N(c2ccccc2)C1=O)CC (stereo not given)
TGI (A498 renal): > 10 µM
TGI (SNB-19 CNS): > 10 µM
TGI (SF-295 CNS): > 10 µM
TGI (SK-MEL-2 melanoma): > 10 µM
TGI (A549 NSCLC): > 10 µM
TGI (SNB-75 CNS): > 10 µM
TGI (MDA-MB-231 breast): > 10 µM
TGI (UACC-257 melanoma): > 10 µM
TGI (NCI/ADR-RES ovarian): > 10 µM
TGI (HS 578T breast): > 10 µM

Cc1cc(O)c(/C=N/C(N)=S)c(=O)o1
TGI (SNB-19 CNS): > 100 µM
TGI (SF-295 CNS): > 100 µM
TGI (SK-MEL-2 melanoma): > 100 µM
TGI (A549 NSCLC): > 100 µM
TGI (SNB-75 CNS): > 100 µM
TGI (MDA-MB-231 breast): > 100 µM
TGI (UACC-257 melanoma): > 100 µM
TGI (NCI/ADR-RES ovarian): > 100 µM
TGI (HOP-92 NSCLC): > 100 µM
TGI (HS 578T breast): > 100 µM

COC(=O)c1cc(S(=O)(=O)NC2=NCC(C)NN2)c(S)cc1Cl (stereo not given)
TGI (A498 renal): 72.8 µM
TGI (SNB-19 CNS): > 100 µM
TGI (SF-295 CNS): > 100 µM
TGI (SK-MEL-2 melanoma): 84.5 µM
TGI (A549 NSCLC): > 100 µM
TGI (SNB-75 CNS): 75.3 µM
TGI (MDA-MB-231 breast): > 100 µM
TGI (UACC-257 melanoma): > 100 µM
TGI (NCI/ADR-RES ovarian): > 100 µM

CCOC(=O)c1c(NC(=O)c2ccccc2)c(C#N)c2n1CCCCC2
TGI (SNB-19 CNS): > 100 µM
TGI (SF-295 CNS): > 100 µM
TGI (A549 NSCLC): > 100 µM
TGI (SNB-75 CNS): > 100 µM
TGI (MDA-MB-231 breast): > 100 µM
TGI (UACC-257 melanoma): > 100 µM
TGI (NCI/ADR-RES ovarian): > 100 µM
TGI (HOP-92 NSCLC): > 100 µM
TGI (HS 578T breast): > 100 µM

C[C@H]1CC[C@@]2(OC1)O[C@H]1C[C@H]3[C@@H]4CC[C@@H]5C[C@@H](OC6OC(CO)C(O)C(O)C6OC6OC(CO)C(O)C(O)C6O)CC[C@]5(C)[C@H]4CC[C@]3(C)[C@H]1[C@@H]2C (stereo not given in full)
TGI (SNB-19 CNS): 3.9 µM
TGI (SF-295 CNS): 3.95 µM
TGI (SK-MEL-2 melanoma): 4.03 µM
TGI (A549 NSCLC): 3.69 µM
TGI (SNB-75 CNS): 4.07 µM
TGI (MDA-MB-231 breast): 3.81 µM
TGI (UACC-257 melanoma): 3.86 µM
TGI (NCI/ADR-RES ovarian): 5.03 µM
TGI (HOP-92 NSCLC): 4.12 µM
TGI (HS 578T breast): 4.47 µM

O=C1CC(c2cccc(Cl)c2)Nc2ccc(N3CCCC3)cc21 (stereo not given)
TGI (A498 renal): > 100 µM
TGI (SNB-19 CNS): > 100 µM
TGI (SF-295 CNS): > 100 µM
GI50 (A549 NSCLC): 0.0153 µM
TGI (A549 NSCLC): > 100 µM
GI50 (MDA-MB-231 breast): 0.433 µM
TGI (MDA-MB-231 breast): > 100 µM
TGI (UACC-257 melanoma): > 100 µM
GI50 (HOP-92 NSCLC): 0.135 µM
TGI (HOP-92 NSCLC): > 100 µM

O=C(c1ccc(Cl)cc1)N(C(=O)N1CCCCC1)c1ccccc1
TGI (A498 renal): > 100 µM
TGI (SNB-19 CNS): > 100 µM
TGI (SK-MEL-2 melanoma): > 100 µM
TGI (MDA-MB-231 breast): > 100 µM
TGI (NCI/ADR-RES ovarian): > 100 µM
TGI (HS 578T breast): > 100 µM

C[C@@H]1CC[C@]2(C)C3(C)CC[C@]2(OC3=O)[C@@]12CC(c1ccoc1)OC2=O (stereo not given in full)
TGI (A498 renal): > 100 µM
TGI (SNB-19 CNS): > 100 µM
TGI (SF-295 CNS): > 100 µM
TGI (SK-MEL-2 melanoma): > 100 µM
TGI (A549 NSCLC): > 100 µM
TGI (NCI/ADR-RES ovarian): > 100 µM
TGI (HOP-92 NSCLC): 69.2 µM
TGI (HS 578T breast): > 100 µM
